Experimental data as given in patent US8835428B2, “Diacylglycerol acyltransferase inhibitors” (Piramal Enterprises Limited, priority 2008, dated 2014).

Target: T1, hDGAT1 (Homo sapiens, UniProt O75907)
T1 construct: host or cells: Sf9 insect cells (baculovirus); microsomal preparation
T1 sequence (O75907 1-488): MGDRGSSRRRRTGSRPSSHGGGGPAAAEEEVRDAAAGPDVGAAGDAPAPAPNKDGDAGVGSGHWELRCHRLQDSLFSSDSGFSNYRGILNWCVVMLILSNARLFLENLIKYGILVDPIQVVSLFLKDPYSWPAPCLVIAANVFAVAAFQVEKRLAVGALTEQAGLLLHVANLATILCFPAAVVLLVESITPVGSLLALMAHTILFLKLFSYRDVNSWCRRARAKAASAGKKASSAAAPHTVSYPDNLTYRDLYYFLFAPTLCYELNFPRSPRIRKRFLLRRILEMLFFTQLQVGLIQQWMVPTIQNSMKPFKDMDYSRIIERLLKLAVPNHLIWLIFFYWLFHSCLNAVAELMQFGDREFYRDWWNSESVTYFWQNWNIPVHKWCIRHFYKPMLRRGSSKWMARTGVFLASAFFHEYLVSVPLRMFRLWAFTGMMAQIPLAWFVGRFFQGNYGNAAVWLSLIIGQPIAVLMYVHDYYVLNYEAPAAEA
Assay: In-vitro DGAT1 assay (hDGAT1 microsomes from Sf9 cells, 14C oleoyl CoA, triglyceride formation)
Format: biochemical
Conditions: At 1 μM
How it was run: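 Human DGAT1 in baculovirus-infected Sf9 microsomes (2.5–10 μg), [14C]oleoyl-CoA with 409.5, 1228.5 or 1638 μM 1,2-dioleoyl-sn-glycerol, Tris-HCl pH 7.4 buffer with BSA. Compounds screened at 10, 5 and 1 μM in duplicate. Reaction 10 min at 37 °C; heptane-extracted [14C]triglyceride counted by scintillation.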

Row | inhibition at 1 µM | Structure (SMILES)
1 | 50 to 75% | CC(C)[C@H](NC(=O)c1cc(-c2ccc(NC(=O)Nc3ccc(F)cc3)cc2F)no1)C(=O)O [Example 146, (S)-2-(3-(2-fluoro-4-(3-(4-fluorophenyl)ureido)phenyl)isoxazole-5-carboxamido)-3-methylbutanoic acid]
2 | 75 to 100% | CC(C)[C@H](NC(=O)c1cc(-c2ccc(NC(=O)Nc3ccccc3C(F)(F)F)cc2)no1)C(=O)O [Example 164, (S)-3-methyl-2-(3-(4-(3-(2-(trifluoromethyl)phenyl)ureido)phenyl)isoxazole-5-carboxamido)butanoic acid]
3 | 75 to 100% | CC(C)[C@H](NC(=O)c1cc(-c2ccc(NC(=O)Nc3ccc(F)c(F)c3)cc2)no1)C(=O)O [Example 130, (S)-2-(3-(4-(3-(3,4-difluorophenyl)ureido)phenyl)isoxazole-5-carboxamido)-3-methylbutanoic acid]
4 | 75 to 100% | CC(C)[C@H](NC(=O)c1cc(-c2ccc(NC(=O)Nc3cc(Cl)ccc3Oc3ccccc3)cc2)no1)C(=O)O [Example 236, (S)-2-(3-(4-(3-(5-Chloro-2-phenoxyphenyl)ureido)phenyl)isoxazole-5-carboxamido)-3-methylbutanoic acid]
5 | 0 to 50% | CC(C)[C@H](NC(=O)c1csc(-c2ccc(NC(=O)Nc3ccc4c(c3)CCC4)cc2)n1)C(=O)O [Example 361, (S)-2-(2-(4-(3-(2,3-dihydro-1H-inden-5-yl)ureido)phenyl)thiazole-4-carboxamido)-3-methylbutanoic acid]
6 | 50 to 75% | COC(=O)[C@H](C(C)C)N(C)C(=O)c1cc(-c2ccc(NC(=O)NC3CCCCC3)cc2)no1 [Example 311, (S)-methyl 2-(3-(4-(3-cyclohexylureido)phenyl)-N-methylisoxazole-5-carboxamido)-3-methylbutanoate]
7 | 0 to 50% | CC(C)C(NC(=O)c1cc(-c2ccc(NC(=O)C(=O)Nc3cccc(C(F)(F)F)c3)cc2)no1)C(=O)O (stereo not drawn) [Example 337, 3-Methyl-2-(3-(4-(2-oxo-2-(3-(trifluoromethyl)phenylamino)acetamido)phenyl)isoxazole-5-carboxamido)butanoic acid]
8 | 75 to 100% | CC(C)[C@H](NC(=O)c1cc(-c2ccc(NC(=O)Nc3ccc(C(F)(F)F)cc3Cl)cc2)no1)C(=O)O [Example 232, (S)-2-(3-(4-(3-(2-Chloro-4-(trifluoromethyl)phenyl)ureido)phenyl)isoxazole-5-carboxamido)-3-methylbutanoic acid]
9 | 0 to 50% | COC(=O)[C@H](NC(=O)c1cc(-c2ccc(NS(=O)(=O)c3c(F)cccc3F)cc2)no1)C(C)C [Example 316, (R)-Methyl 2-(3-(4-(2,6-difluorophenylsulfonamido)phenyl)isoxazole-5-carboxamido)-3-methylbutanoate]

Same assay, conditions: At 5 μM

Row | inhibition at 5 µM | Structure (SMILES)
10 | 50 to 75% | Cc1ccc(NC(=O)Nc2ccc(-c3cc(C(=O)N[C@@H](Cc4ccc(O)cc4)C(=O)O)on3)cc2)cc1 [Example 273, (S)-3-(4-Hydroxyphenyl)-2-(3-(4-(3-p-tolylureido)phenyl)isoxazole-5-carboxamido)propanoic acid]
11 | 0 to 50% | COC(=O)CCCNC(=O)c1cc(-c2ccc(NC(=O)Nc3ccccc3F)cc2)no1 [Example 253, Methyl 4-(3-(4-(3-(2-fluorophenyl)ureido)phenyl)isoxazole-5-carboxamido)butanoate]
12 | 75 to 100% | CC(C)[C@H](NC(=O)c1cc(-c2ccc(NC(=O)Nc3ccc(F)cc3F)cc2F)no1)C(=O)O [Example 142, (S)-2-(3-(4-(3-(2,4-difluorophenyl)ureido)-2-fluorophenyl)isoxazole-5-carboxamido)-3-methylbutanoic acid]
13 | 50 to 75% | CC(C)[C@H](NC(=O)c1cc(-c2ccc(NC(=O)Nc3ccccc3F)cc2)no1)C(=O)OC(C)(C)C [Example 300, (S)-tert-butyl 2-(3-(4-(3-(2-fluorophenyl)ureido)phenyl)isoxazole-5-carboxamido)-3-methylbutanoate]
14 | 0 to 50% | COC(=O)[C@@H](NC(=O)c1nc(-c2ccc(NC(=S)Nc3cccc(F)c3)cc2)no1)C(C)C [Example 353, (S)-Methyl 2-(3-(4-(3-(3-fluorophenyl)thioureido)phenyl)-1,2,4-oxadiazole-5-carboxamido)-3-methylbutanoate]
15 | 50 to 75% | O=C(Nc1ccc(-c2cc(C(=O)NC(Cc3ccccc3)C(=O)O)on2)cc1)Nc1ccc(F)cc1F (stereo not drawn) [Example 246, 2-(3-(4-(3-(2,4-Difluorophenyl)ureido)phenyl)isoxazole-5-carboxamido)-3-phenylpropanoic acid]
16 | 0 to 50% | COC(=O)[C@H](Cc1ccc(O)cc1)NC(=O)c1cc(-c2ccc(NC(=O)Nc3ccc(C)cc3)cc2)no1 [Example 272, (S)-Methyl 3-(4-hydroxyphenyl)-2-(3-(4-(3-p-tolylureido)phenyl)isoxazole-5-carboxamido)propanoate]

Same assay, conditions: At 10 μM

Row | inhibition at 10 µM | Structure (SMILES)
17 | 50 to 75% | Cc1cc(-c2cc(C(=O)NC(C(=O)O)C(C)C)on2)ccc1NC(=O)Nc1c(F)cccc1F (stereo not drawn) [Example 98, 2-(3-(4-(3-(2,6-Difluorophenyl)ureido)-3-methylphenyl)isoxazole-5-carboxamido)-3-methylbutanoic acid]
18 | 75 to 100% | CC(C)C(NC(=O)c1cc(-c2ccc(NC(=O)Nc3ccccc3F)cc2)no1)C(=O)O (stereo not drawn) [Example 106, 2-(3-(4-(3-(2-Fluorophenyl)ureido)phenyl)isoxazole-5-carboxamido)-3-methylbutanoic acid]
19 | 75 to 100% | Cc1cc(NC(=O)Nc2ccc(F)cc2F)ccc1-c1cc(C(=O)NC(C(=O)O)C(C)C)on1 (stereo not drawn) [Example 138, 2-(3-(4-(3-(2,4-difluorophenyl)ureido)-2-methylphenyl)isoxazole-5-carboxamido)-3-methylbutanoic acid]
20 | 50 to 75% | COC(=O)C(NC(=O)c1cc(-c2ccc(NC(=O)Nc3ccc(F)cc3F)cc2)no1)C(C)C (stereo not drawn) [Example 111, Methyl 2-(3-(4-(3-(2,4-difluorophenyl)ureido)phenyl)isoxazole-5-carboxamido)-3-methylbutanoate]
21 | 0 to 50% | COC(=O)[C@@H](NC(=O)c1cc(-c2cccc(Nc3nc4ccc(F)cc4s3)c2)no1)C(C)C [Example 22, (S)-2-({3-[3-(6-Fluoro-benzothiazol-2-ylamino)-phenyl]-isoxazole-5-carbonyl}-amino)-3-methyl-butyric acid methyl ester]
22 | 0 to 50% | COC[C@H](NC(=NO)c1cc(-c2cccc(Nc3nc4ccc(F)cc4s3)c2)no1)C(=O)OC [Example 32, (S)-2-({3-[3-(6-Fluoro-benzothiazol-2-ylamino)-phenyl]-N-hydroxy-isoxazole-5-carboximidoyl}-amino)-3-methoxy-propionic acid methyl ester]
23 | 75 to 100% | CC(C)C(NC(=O)c1cc(-c2ccc(NC(=O)Nc3ccc(F)cc3F)c(F)c2)no1)C(=O)O (stereo not drawn) [Example 150, 2-(3-(4-(3-(2,4-Difluorophenyl)ureido)-3-fluorophenyl)isoxazole-5-carboxamido)-3-methylbutanoic acid]
24 | 50 to 75% | CC(C)[C@H](NC(=S)c1cc(-c2ccc(Nc3nc4ccc(F)cc4s3)cc2)no1)C(=O)O [Example 45, (S)-2-({3-[4-(6-Fluoro-benzothiazol-2-ylamino)-phenyl]-isoxazole-5-carbothioyl}-amino)-3-methyl-butyric acid]
25 | 0 to 50% | COC(=O)[C@H](CC(C)C)NC(=O)c1cc(-c2ccc(Nc3nc4ccc(F)cc4s3)cc2)no1 [Example 46, (S)-2-({3-[4-(6-Fluoro-benzothiazol-2-ylamino)-phenyl]-isoxazole-5-carbonyl}-amino)-4-methyl-pentanoic acid methyl ester]
26 | 50 to 75% | CC(C)(NC(=O)c1cc(-c2ccc(NC(=O)Nc3ccc(F)cc3)cc2)no1)C(=O)O [Example 118, 2-(3-(4-(3-(4-fluorophenyl)ureido)phenyl)isoxazole-5-carboxamido)-2-methylpropanoic acid]
27 | 0 to 50% | COC(=O)[C@H](CC(C)C)NC(=S)c1cc(-c2ccc(Nc3nc4ccc(F)cc4s3)cc2)no1 [Example 48, (S)-2-({3-[4-(6-Fluoro-benzothiazol-2-ylamino)-phenyl]-isoxazole-5-carbothioyl}-amino)-4-methyl-pentanoic acid methyl ester]
28 | 75 to 100% | CC(C)C[C@H](NC(=O)c1cc(-c2ccc(Nc3nc4ccc(F)cc4s3)cc2)no1)C(=O)O [Example 47, (S)-2-({3-[4-(6-fluoro-benzothiazol-2-ylamino)-phenyl]-isoxazole-5-carbonyl}-amino)-4-methyl-pentanoic acid]
29 | 0 to 50% | COC[C@H](NC(=O)c1c(-c2ccc(Nc3nc4ccc(F)cc4s3)cc2)noc1-c1ccccc1)C(=O)OC [Example 70, (S)-2-({3-[4-(6-Fluoro-benzothiazol-2-ylamino)-phenyl]-5-phenyl-isoxazole-4-carbonyl}-amino)-3-methoxy-propionic acid methyl ester]
30 | 50 to 75% | COC(=O)C(NC(=O)c1cc(-c2ccc(NC(=O)Nc3ccccc3F)cc2)no1)C(C)C (stereo not drawn) [Example 105, 2-[(3-{4-[3-(2-Fluoro-phenyl)ureido]-phenyl}-isoxazole-5-carbonyl)-amino]-3-methyl-butyric acid methyl ester]
